Test results: PMC3206575 (The Journal of Cell Biology, 1999)
Where a chain is given by its changes, count along the chain named.

Columns and labels:
[1] = biological target: T1, DRal (Drosophila Ral), GST-DRal (Drosophila melanogaster, UniProt P48555, G20V); test: [3H]GDP binding to GST fusion protein
T1 sequence (P48555 1-201 G20V): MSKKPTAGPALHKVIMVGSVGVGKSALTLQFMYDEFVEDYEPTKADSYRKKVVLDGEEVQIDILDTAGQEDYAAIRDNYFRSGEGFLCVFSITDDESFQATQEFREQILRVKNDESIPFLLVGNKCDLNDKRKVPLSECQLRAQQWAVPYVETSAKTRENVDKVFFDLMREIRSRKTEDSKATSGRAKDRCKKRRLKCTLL

[2] = biological target: T2, DRal (Drosophila Ral), GST-DRal (Drosophila melanogaster, UniProt P48555, S25N); test: [3H]GDP binding to GST fusion protein
T2 sequence (P48555 1-201 S25N): T1 sequence (P48555 1-201 G20V) with V20G, S25N

[3] = biological target: T3, DRal (Drosophila Ral), GST-DRal (Drosophila melanogaster, UniProt P48555); test: [3H]GDP binding to GST fusion protein
T3 sequence (P48555 1-201): T1 sequence (P48555 1-201 G20V) with V20G

[4] = biological target: T2, DRal (Drosophila Ral), GST-DRal; test: […]GTPγS binding to GST fusion protein
[5] = biological target: T1, DRal (Drosophila Ral), GST-DRal; test: […]GTPγS binding to GST fusion protein
[6] = biological target: T3, DRal (Drosophila Ral), GST-DRal; test: […]GTPγS binding to GST fusion protein

Kd [1]	Kd [2]	Kd [3]	Kd [4]	Kd [5]	Kd [6]	SMILES
8.4 nM	95.1 nM	14 nM	–	–	–	Nc1nc2c(ncn2[C@@H]2O[C@H](COP(=O)(O)OP(=O)(O)O)[C@@H](O)[C@H]2O)c(=O)[nH]1 [GDP]
–	–	–	406 nM	38 nM	30.7 nM	Nc1nc2c(ncn2[C@@H]2O[C@H](COP(=O)(O)OP(=O)(O)OP(O)(O)=S)[C@@H](O)[C@H]2O)c(=O)[nH]1 [GTPγS]
